System: S opsin+ photoreceptors
Assay: Injection of timed-pregnant dams at E14 and E17, S opsin+ photoreceptors in P0 pups
Format: in vivo, mouse
Conditions: dams injected 100 μl of 50 mM at E14 and E17, pups analysed at P0, vs controls
Method: Nr2e3 is expressed in developing rods prior to birth, and so to test whether PR1 could affect prenatal rod development, wild type timed-pregnant dams were injected with 100 μl of 50 mM PR1 at E14 and E17, during peak S cone photoreceptor genesis and the onset of Nr2e3 expression (FIG. 7F). The pups were sacrificed at P0 and their retinas collected for staining and for quantifying S opsin+ photoreceptors. […] To determine if PR1 affected rhodopsin expression in developing rods in vivo, pups were injected with 20 μl of 50 mM PR1 or an equal volume of DMSO at P2 or P3 (FIG. 7I). The pups were sacrificed the following day and analyzed rhodopsin expression by qPCR.
Retinal explants or eyecups were fixed in 4% PFA in 1×PBS for 20 minutes at room temperature and then cryoprotected in 30% sucrose in 1×PBS overnight at 4° C. Samples were embedded in OCT (Sakura Finetek), frozen on dry ice, and then sectioned at 14-16 μm on a cryostat (Leica). Slides were blocked with a solution containing 10% Normal Horse Serum (Vector Labs) and 0.5% Triton X-100 (Sigma-Aldrich) in 1×PBS for 1 hour at room temperature and then stained overnight at 4° C. with primary antibodies diluted in blocking solution. […]

In the case of `Cc1cc(C)cc(NC(=O)CCc2nc3sc4c(c3c(=O)[nH]2)CCCC4)c1` [PR1, N-(3,5-dimethylphenyl)-3-(4-oxo-5,6,7,8-tetrahydro-3H-[1]benzothiolo[2,3-d]pyrimidin-2-yl)propanamide], the “number of S opsin-positive cells in pups” value is reported as “increase in the number of S opsin-positive cells”.
